“Also recorded” adds a separate entry of the source.
Legend:
[1] = system: clot formation in normal human platelet poor plasma; test: Prothrombin time (PT) plasma clotting assay; type: biochemical; conditions: for increase of PT clotting time: 4 μM aptamer
Method: (§1) The activated partial thromboplastin time (aPTT) and prothrombin time (PT) assays were performed on a model ST4 mechanical coagulometer (Diagnostica Stago, Parsippany, N.J.) as previously described (Bompiani et al, J Thromb Haemost 10:870-80 (2012)). For the aPTT, 50 μL of normal human platelet poor plasma (PPP) was incubated with 50 μL TriniClot aPTT S (Trinity BioTech, Bray, Co Wicklow, Ireland) at 37° C. for 5 min. Aptamer(s) (5 μL) was added, and the mixture was incubated at 37° C. for another 5 min, and CaCl2 (50 μL) was added to initiate the assay. For the PT, 50 μL of normal human PPP was incubated with 5 μL of aptamer(s) at 37° C. for 5 min. TriniClot PT Excel reagent (Trinity BioTech, Bray, Co Wicklow, Ireland) (100 μL) was added to initiate the reaction. Assays with a combination of two aptamers contain an equimolar concentration of each individual aptamer, and the data shown are the total RNA concentration.
(§2) To compare the anticoagulant effect of these four aptamers, dose-response titrations were performed in several clinical plasma-based clotting assays. The activated partial thromboplastin time (aPTT) and prothrombin time (PT) are plasma clotting assays that are clinically used to probe for abnormalities in the intrinsic and extrinsic coagulation pathways, respectively (Van Cott et al, editors. Jacobs & DeMott laboratory test handbook. 5th ed. Hudson Ohio: Lexi-Comp. p. 327-58 (2001)). These relatively simple assays measure the time until clot formation in platelet poor plasma (PPP) in response to either robust tissue factor (TF), or contact stimulation via negatively charged surfaces (i.e., silica, kaolin, celite). […] At high concentrations, the prothrombin aptamer (R9D-14T) was the most robust anticoagulant and inhibited greater than 96% of prothrombin activity in the aPTT and PT. At 4 μM, R9D-14T increased the aPTT clotting time approximately 18-fold and the PT clotting time greater than 80-fold (exceeded the assay limit of 999 sec). […] At the same dose, the FIXa aptamer (9.3T) inhibited greater than 99% of FIX activity and increased the aPTT clotting time approximately 5.5-fold, while the FVIIa aptamer (7S-1) increased the PT clotting time 3-fold and inhibited greater than 99% of FVII activity (FIGS. 20A and 20B).

[2] = system: clot formation in normal human platelet poor plasma; test: Activated partial thromboplastin time (aPTT) plasma clotting assay; type: biochemical; conditions: for increase of aPTT clotting time: 4 μM aptamer
Method: as §1, §2

[3] = system: thrombin generation in normal human platelet poor plasma; test: Calibrated automated thrombography (CAT); type: biochemical
Method: Normal human platelet poor plasma (80 μL) was mixed with aptamer(s) (10 μL) in an Immunolon 2HB U Bottom Mictrotiter 96-well plate (Thermo Labsystems, Franklin, Mass.) and incubated at 37° C. for 5 min. PPP reagent (Diagnostica Stago, Parsippany, N.J.) (either 1 ρM or 5 ρM TF, 20 μL, Diagnostica Stago) was added, and the mixture was incubated at 37° C. for another 5 min. FluCa (Diagnostica Stago) (10 μL) was added to initiate the assay and thrombin generation was measured for 60 minutes at 37° C. with a Fluoroskan Ascent fluorometer (ThermoLabsystem, Helsinki, Finland) according to the manufacturer's instructions. The amount of thrombin generated was quantified by comparison to an assay with thrombin calibrator reagent (Diagnostica Stago) that has a known activity toward the fluorogenic substrate. The lag time, peak amount of thrombin generated, and endogenous thrombin potential (ETP) were automatically calculated by the Thrombinoscope software (Thrombinoscope BV, the Netherlands).
Thrombin is the final protease formed in the coagulation cascade, and the rate of thrombin generation and the total amount of thrombin generated is associated with blood clot formation and stability (Wolberg, Blood Rev 21:131-42 (2007)). To gain more information about the impact of aptamer anticoagulation on the kinetics of thrombin generation, the individual aptamers were analyzed with calibrated automated thrombography (CAT). The CAT assay measures real-time thrombin generation in plasma by monitoring cleavage of a thrombin-specific fluorogenic substrate in response to TF stimulation (Heruker et al, Pathophysiol Haemost Thromb 33: 4-15 (2003)). The parameters of thrombin generation analyzed include: the lag time (time until thrombin generation begins), the peak (the maximal amount of thrombin generated at a given time) and the endogenous thrombin potential (ETP, the total amount of thrombin generated). Similar to the aPTT and PT clotting assays, all of the individual aptamers dose-dependently impacted the various parameters of thrombin generation (FIG. 21 and Table 1). […] 9.3T minorly impacted all parameters of thrombin generation with the high TF reagent; however, because high concentrations of TF may bypass FIX activity by directly generating FXa, the manufacturer recommends low concentrations of TF for analyzing FIX deficient (i.e, Hemophilia B) plasma in the CAT.

[4] = system: clot formation in whole blood; test: TEG of whole blood, coagulation triggered by tissue factor (Example I); type: cell-based; conditions: TF; for clot formation (in words): FVIIa aptamer 0.5, FIXa aptamer 1.0, FXa aptamer 1.0 micromolar
Method: TEG is a waveform generated from serial measurements of the torque transmitted from a small oscillating cup to the tip of a metal pin inserted into the cup by a 360 microliter sample of blood or plasma added to the cup.
A 360 microliter blood sample has been added to the cup. For 180 minutes after the sample is added, the cup oscillates alternatively clockwise and counterclockwise through an arc of 4° 45′ at a frequency of one oscillation cycle—i. e., one clockwise rotation and one counterclockwise rotation—every 10 seconds. The lower end of the pin is immersed by the sample; the upper end is suspended from a torsion wire. The TEG analyzer records a single measurement of rotation-induced torque after each clockwise rotation and after each counterclockwise rotation of the cup. “The torque of the rotating cup is transmitted to the immersed pin only after fibrin-platelet bonding has linked the cup and [the] pin together. The strength of these fibrin-platelet bonds affects the magnitude of the pin motion, such that strong clots move the pin directly in phase with the cup motion. Thus, the magnitude of the output is directly related to the strength of the formed clot . . . . [If] the clot retracts or lyses, these bonds are broken and the transfer of cup motion is diminished. The rotation movement of the pin is converted by a mechanical-electrical transducer to an electrical signal which can be monitored by a computer” (TEG 5000 User Manual, pp 3-4, 1999-2007)). The computer converts the series of electrical signals into the TEG tracing.

FIXa = target: T1, FIXa (Homo sapiens, UniProt P00740); conditions: clinical studies; cited from earlier work
T1 construct: host or cells: circulating blood of trial subjects (endogenous protein)
T1 sequence (P00740 227-461 limits assumed): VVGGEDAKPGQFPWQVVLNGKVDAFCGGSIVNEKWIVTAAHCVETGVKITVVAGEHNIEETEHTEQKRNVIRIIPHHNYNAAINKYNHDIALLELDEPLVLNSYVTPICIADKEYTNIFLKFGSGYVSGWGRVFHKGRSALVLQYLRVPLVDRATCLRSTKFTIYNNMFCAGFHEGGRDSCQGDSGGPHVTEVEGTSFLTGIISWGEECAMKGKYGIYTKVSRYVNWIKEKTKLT
T1 sequence (P00740 47-191 partner limits assumed): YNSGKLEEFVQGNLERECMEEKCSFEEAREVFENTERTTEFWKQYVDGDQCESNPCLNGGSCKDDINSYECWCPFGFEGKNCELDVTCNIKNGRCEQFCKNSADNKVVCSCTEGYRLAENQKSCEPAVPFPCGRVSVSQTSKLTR

Substance: R9D-14T: prothrombin/thrombin aptamer, 58-base truncation of RNA9D-14, SEQ ID NO: 3 (GGCGGTCGATCACACAGTTCAAACGTAATAAGCCAATGTACGAGGCAGACGACTCGCC; 2'-fluoro at CT, RNA at AG, backbone and T or U not given here) [Aptamer R9D-14T]
- increase of PT clotting time [1]: greater than 80 fold
- PT clotting time ([1]; 4 μM, assay limit 999 sec): > 999 s
- prothrombin activity inhibited ([1]; PT, high concentrations): greater than 96%
- increase of aPTT clotting time [2]: approximately 18 fold
- prothrombin activity inhibited ([2]; aPTT, high concentrations): greater than 96%
- ETP ([3]; RNA 625 nM, TF 5 ρM): 1492.50 ± 54.94 nM·min
- Lag-time ([3]; RNA 625 nM, TF 5 ρM): 1.55 ± 0.08 min
- Peak ([3]; RNA 625 nM, TF 5 ρM): 314.82 ± 25.02 nM
- TTP ([3]; RNA 625 nM, TF 5 ρM): 3.88 ± 0.18 min
- ETP ([3]; RNA 1,250 nM, TF 5 ρM): 1293.00 ± 67.66 nM·min
- Lag-time ([3]; RNA 1,250 nM, TF 5 ρM): 1.55 ± 0.08 min
- Peak ([3]; RNA 1,250 nM, TF 5 ρM): 269.45 ± 13.17 nM
- TTP ([3]; RNA 1,250 nM, TF 5 ρM): 3.67 ± 0.18 min
- ETP ([3]; RNA 2,500 nM, TF 5 ρM): 1170.90 ± 90.47 nM·min
- Lag-time ([3]; RNA 2,500 nM, TF 5 ρM): 4.37 ± 0.71 min
- Peak ([3]; RNA 2,500 nM, TF 5 ρM): 192.66 ± 31.04 nM
- TTP ([3]; RNA 2,500 nM, TF 5 ρM): 7.64 ± 1.31 min
- thrombin generation (in words) ([3]; RNA 5,000 nM (5 μM), TF 5 ρM): completely inhibited thrombin generation; also recorded: no thrombin generation detected

Substance: 11F7T: FXa aptamer, 2'-fluoropyrimidine modified RNA, SEQ ID NO: 2 (GAGAGCCCCAGCGAGAUAAUACUUGGCCCCGCUCUU; 2'-fluoro at CU, RNA at AG, backbone not given here) [Aptamer 11F7T]
- MA ([4]; 1.0 micromolar, buffer 69.7 mm): 59.5 mm
- R, lag time ([4]; 1.0 micromolar, buffer 4.4 minutes): 17.8 min
- α ([4]; 1.0 micromolar, buffer about 55 degrees): 24 degrees
- clot formation (in words) [4]: did not prevent the ultimate development of clot
- increase of PT clotting time [1]: approximately 8 fold
- increase of aPTT clotting time [2]: approximately 11 fold
- ETP ([3]; RNA 125 nM, TF 5 ρM): 1612.90 ± 142.40 nM·min
- Lag-time ([3]; RNA 125 nM, TF 5 ρM): 3.00 ± 0.22 min
- Peak ([3]; RNA 125 nM, TF 5 ρM): 227.75 ± 43.47 nM
- TTP ([3]; RNA 125 nM, TF 5 ρM): 7.24 ± 0.77 min
- ETP ([3]; RNA 250 nM, TF 5 ρM): 1220.50 ± 182.02 nM·min
- Lag-time ([3]; RNA 250 nM, TF 5 ρM): 4.94 ± 0.38 min
- Peak ([3]; RNA 250 nM, TF 5 ρM): 120.68 ± 21.79 nM
- TTP ([3]; RNA 250 nM, TF 5 ρM): 11.70 ± 1.13 min
- ETP ([3]; RNA 500 nM, TF 5 ρM): 738.60 ± 202.92 nM·min
- Lag-time ([3]; RNA 500 nM, TF 5 ρM): 7.97 ± 0.93 min
- Peak ([3]; RNA 500 nM, TF 5 ρM): 65.56 ± 14.57 nM
- TTP ([3]; RNA 500 nM, TF 5 ρM): 16.47 ± 1.83 min
- ETP ([3]; RNA 1,000 nM, TF 5 ρM): 459.40 ± 199.39 nM·min
- Lag-time ([3]; RNA 1,000 nM, TF 5 ρM): 9.50 ± 1.00 min
- Peak ([3]; RNA 1,000 nM, TF 5 ρM): 36.84 ± 14.42 nM
- TTP ([3]; RNA 1,000 nM, TF 5 ρM): 20.10 ± 2.96 min

Substance: 9.3T: FIXa aptamer, 2'-fluoropyrimidine modified RNA, SEQ ID NO: 1 (AUGGGGACUAUACCGCGUAAUGCUGCCUCCCCAU; 2'-fluoro at CU, RNA at AG, backbone not given here) [Aptamer 9.3T]
- clot formation (in words) [4]: none of those aptamers prevented clot formation
- FIXa activity inhibited in vivo (FIXa): greater than 99%
- increase of aPTT clotting time [2]: approximately 5.5 fold
- ETP ([3]; RNA 15 nM, TF 1 ρM): 1463.50 ± 19.59 nM·min
- Lag-time ([3]; RNA 15 nM, TF 1 ρM): 3.06 ± 0.15 min
- Peak ([3]; RNA 15 nM, TF 1 ρM): 195.04 ± 6.91 nM
- TTP ([3]; RNA 15 nM, TF 1 ρM): 7.34 ± 0.26 min
- ETP ([3]; RNA 15 nM, TF 5 ρM): 1812.50 ± 81.01 nM·min
- Lag-time ([3]; RNA 15 nM, TF 5 ρM): 1.72 ± 0.20 min
- Peak ([3]; RNA 15 nM, TF 5 ρM): 341.90 ± 12.54 nM
- TTP ([3]; RNA 15 nM, TF 5 ρM): 4.23 ± 0.24 min
- ETP ([3]; RNA 30 nM, TF 1 ρM): 1350.17 ± 28.02 nM·min
- Lag-time ([3]; RNA 30 nM, TF 1 ρM): 3.00 ± 0.10 min
- Peak ([3]; RNA 30 nM, TF 1 ρM): 147.88 ± 4.28 nM
- TTP ([3]; RNA 30 nM, TF 1 ρM): 8.12 ± 0.34 min
- ETP ([3]; RNA 30 nM, TF 5 ρM): 1723.67 ± 57.51 nM·min
- Lag-time ([3]; RNA 30 nM, TF 5 ρM): 1.56 ± 0.20 min
- Peak ([3]; RNA 30 nM, TF 5 ρM): 316.98 ± 3.28 nM
- TTP ([3]; RNA 30 nM, TF 5 ρM): 4.28 ± 0.40 min
- ETP ([3]; RNA 60 nM, TF 1 ρM): 1261.50 ± 64.85 nM·min
- Lag-time ([3]; RNA 60 nM, TF 1 ρM): 2.89 ± 0.15 min
- Peak ([3]; RNA 60 nM, TF 1 ρM): 110.65 ± 6.70 nM
- TTP ([3]; RNA 60 nM, TF 1 ρM): 8.95 ± 0.15 min
- ETP ([3]; RNA 60 nM, TF 5 ρM): 1741.10 ± 78.84 nM·min
- Lag-time ([3]; RNA 60 nM, TF 5 ρM): 1.70 ± 0.11 min
- Peak ([3]; RNA 60 nM, TF 5 ρM): 283.76 ± 3.20 nM
- TTP ([3]; RNA 60 nM, TF 5 ρM): 4.90 ± 0.31 min
- ETP ([3]; RNA 120 nM, TF 1 ρM): 1125.00 ± 31.79 nM·min
- Lag-time ([3]; RNA 120 nM, TF 1 ρM): 2.72 ± 0.05 min
- Peak ([3]; RNA 120 nM, TF 1 ρM): 86.13 ± 3.02 nM
- TTP ([3]; RNA 120 nM, TF 1 ρM): 9.34 ± 0.19 min
- ETP ([3]; RNA 120 nM, TF 5 ρM): 1674.50 ± 56.02 nM·min
- Lag-time ([3]; RNA 120 nM, TF 5 ρM): 1.60 ± 0.15 min
- Peak ([3]; RNA 120 nM, TF 5 ρM): 272.90 ± 9.97 nM
- TTP ([3]; RNA 120 nM, TF 5 ρM): 4.74 ± 0.37 min

Reference: patent US9687529B2, “Method of controlling coagulation” (Duke University, priority 2011, dated 2017)
